Measured values reported in PubChem BioAssay AID179 (DTP/NCI, 2004).
Activity calls are given as the source filed them.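 Rule for the calls: active = compounds giving half or more protection of infected cells from virus-caused growth loss, again on retest; inactive = the rest.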

Tested on: CEM cells HIV-1 protection, formazan growth assay
Test: NCI AIDS Antiviral Assay
Settings: for IC50: measured here: growth of uninfected CEM cells
In short: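 Category rules: moderately active means at least 50% protection on retest, and confirmed active means 100% protection reproducibly. The underlying data came from a formazan growth assay in HIV-1-infected CEM cells.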

SMILES: N#Cc1cc([N+](=O)[O-])ccc1NC(=O)/C(=N/N)C(C(=O)c1ccc(Cl)c(Cl)c1)C1OC(=O)c2ccccc21 (stereo not given)
- EC50: > 64.6 µM
- IC50: > 64.6 µM

SMILES: O=S(Cc1cnc2ccccc2c1)c1nc2ccccc2nc1-c1cccs1 (stereo not given)
- EC50: > 6.76 µM
- IC50: > 6.76 µM

SMILES: CCN(CC)C(=O)COc1cc2c(O)c3c(O)c(C)c4c(c13)C(=O)C(C)(OC=CC(OC)C(C)C(OC(C)=O)C(C)C(O)C(C)C(O)C(C)C=CC=C(C)C(=O)N2)O4 (stereo not given)
- EC50: > 155 µM
- IC50: > 100 µM

SMILES: O=C(Nc1ccc(NC2=NCCN2)cc1)c1ccc(C(=O)Nc2ccc(NC3=NCCN3)cc2)c([N+](=O)[O-])c1
- EC50: > 200 µM
- IC50: 15.1 µM

SMILES: C=C=C(Sc1ccccc1)C(C)(C)O
- EC50: > 251 µM
- IC50: 158 µM

SMILES: CCOC(=O)/C(=C\c1c[nH]c2ccccc12)P(=O)(OCC)OCC
- EC50: > 200 µM
- IC50: 38 µM

SMILES: NNC(=O)N/N=C1\CN(c2ccc(Cl)cc2Cl)C(=O)C(=O)C1c1nc2ccccc2o1 (stereo not given)
- outcome: inactive

SMILES: CCCCOP(C)(=O)C(NC(=O)OCC)(C(F)(F)F)C(F)(F)F (stereo not given)
- EC50: > 200 µM
- IC50: > 200 µM

SMILES: CCc1ccc(Cc2ccc(CC)c(NC(=O)C(=O)C3NC(=S)NC3=O)c2CC)c(CC)c1NC(=O)C(=O)C1NC(=S)NC1=O (stereo not given)
- EC50: > 15.1 µM
- IC50: > 15.1 µM

SMILES: CCCCCCCCCCOC(=O)NCCC
- outcome: inactive

SMILES: CC1(C)N=C(c2ccccn2)C(c2ccccn2)=NC1(C)C
- EC50: > 851 µM
- IC50: 661 µM

SMILES: CC/C=C\C/C=C\C/C=C\CCCCCCCC(=O)OCC
- EC50: > 200 µM
- IC50: 105 µM

SMILES: O=c1ccc(=O)n(-c2ccc(Cl)cc2)[nH]1
- EC50: > 162 µM
- IC50: > 162 µM

SMILES: NNc1ncnc2c1ncn2C1OC(CO)CC1F (stereo not given)
- EC50: > 148 µM
- IC50: > 148 µM

SMILES: c1cnc2c(c1)Sc1ncccc1S2
- EC50: > 115 µM
- IC50: 51.3 µM

SMILES: CCC[CH2][Sn]([CH2]CCC)([O]C(=O)c1cc(F)cc(F)c1)[O][Sn]([CH2]CCC)([CH2]CCC)[O]C(=O)c1cc(F)cc(F)c1
- EC50: > 9.12 µM
- IC50: 1.78 µM

SMILES: Cc1c(C)n2c(=O)n(-c3ccccc3)c(=O)n2c1=O
- EC50: > 977 µM
- IC50: 617 µM

SMILES: CC(=O)NC1=NC(=O)/C(=C/c2ccccc2Cl)N1C
- EC50: > 200 µM
- IC50: > 200 µM

SMILES: CON[C@@H]1C[C@H](n2cc(C)c(=O)[nH]c2=O)O[C@@H]1CO[Si](C)(C)C(C)(C)C
- EC50: > 200 µM
- IC50: 107 µM

SMILES: O=NN(CCCl)C(=O)NC1CCCCC1
- EC50: > 1070 µM
- IC50: 35.5 µM

SMILES: C/C=C/C=Nc1c(C#N)c2n(c1C(=O)Nc1ccc(C)cc1)CCC2
- EC50: > 50.1 µM
- IC50: > 50.1 µM

SMILES: COC(=O)C1CCc2nnc(-c3ccccc3)n21 (stereo not given)
- EC50: 955 µM
- IC50: 1020 µM

SMILES: CCC(C)C(=O)O[C@H]1[C@H](OC(C)=O)[C@H](OC(C)=O)[C@@]2(COC(C)=O)C(OC(C)=O)C(=O)[C@@H]3[C@@H](OC(C)=O)[C@]2(O[C@@]3(C)COC(=O)c2ccccc2)[C@@]1(C)O (stereo not given in full)
- outcome: inactive

SMILES: O=C1OC(Cl)(C(Cl)(Cl)Cl)C(=O)OC1(Cl)C(Cl)(Cl)Cl (stereo not given)
- EC50: > 200 µM
- IC50: > 200 µM

SMILES: CCOC(=O)CNC(=O)c1ccccc1SC(=O)CCCC[n+]1ccccc1
- EC50: > 20 µM
- IC50: 0.363 µM

SMILES: CN(C)NC1=C([N+](=O)[O-])C=NN(c2ccccc2)C1
- EC50: > 27.5 µM
- IC50: 0.468 µM

SMILES: COc1ccc(-c2c(C#N)cnc(C)c2C)c(O)c1OC
- EC50: > 631 µM
- IC50: 115 µM

SMILES: CN(C)CC(O)CNC(=O)Nc1ccccc1 (stereo not given)
- EC50: > 200 µM
- IC50: > 200 µM

SMILES: C=C1C(OC(C)=O)[C@@]23CC[C@@H]4C(C)(C(=O)OC)CCCC4(C)[C@@H]2CC[C@@H]1C3 (stereo not given in full)
- EC50: > 200 µM
- IC50: 51.3 µM

SMILES: CCCCCCCCCCCC1=C(O)C(=O)C(CC2=C(O)C(=O)C(CCCCCCCCCCC)=C(O)C2=O)=C(O)C1=O
- EC50: > 20 µM
- IC50: > 20 µM

SMILES: COc1ccc(OC)c(-n2nnc3ccccc3c2=O)c1
- EC50: > 302 µM
- IC50: 174 µM

SMILES: CC(C)c1cccc(C(C)C)c1N1C(=O)C(=O)C(c2nc3ccccc3o2)C(=O)C1=O
- outcome: inactive

SMILES: COc1cc(C(=O)Oc2c(C(C)=O)sc3c2c(=O)n(-c2ccccc2)c(=S)n3-c2ccccc2)cc(OC)c1OC
- EC50: > 200 µM
- IC50: 1.1 µM

SMILES: O=c1nc(-c2ccccc2)c2c3c(cccn13)CCC2
- outcome: inactive

SMILES: COc1ccc(C(=O)NO)cc1
- EC50: > 200 µM
- IC50: 25.1 µM

SMILES: CC(C)(C)OC(=O)N1CCC(C(=O)O)CC1
- EC50: > 200 µM
- IC50: > 200 µM

SMILES: Nc1ccc([C@H]2C(=O)N[C@H]3CCC[C@H]32)cc1
- EC50: > 417 µM
- IC50: > 417 µM

SMILES: CCOC(=O)c1ccc(CS(=O)(=O)c2ccc(OC)cc2)c([N+](=O)[O-])c1
- EC50: > 95.5 µM
- IC50: > 95.5 µM

SMILES: O/N=C/c1ncccc1C1OCCO1
- EC50: > 257 µM
- IC50: 141 µM

SMILES: COC(=O)CCC(NC(=O)C(C)NC(=O)COC1C(O)C(OC(=O)CCNc2c3ccccc3nc3cccc([N+](=O)[O-])c23)OC(OCc2ccccc2)C1NC(C)=O)C(N)=O (stereo not given)
- outcome: inactive

SMILES: COC(=O)c1cc(=O)n2c(sc3ccccc32)c1C(=O)c1ccccc1
- EC50: > 10 µM
- IC50: > 10 µM

SMILES: CC(C)(C)c1ccc(OC(=O)Nc2ccc(O)c(C(=O)O)c2)cc1
- EC50: > 200 µM
- IC50: > 200 µM

SMILES: CCCCCCCCCCNCCSSCc1ccc(OC)cc1
- EC50: > 200 µM
- IC50: 3.39 µM
